Reference: patent publication US20070179122A1, “Beta-Aminoacid-Derivatives As Factor Xa Inhibitors” (Sanofi-Aventis Deutschland GmbH, priority 2004, published 2007)

Biological target: T1, human factor Xa (Homo sapiens, UniProt P00742)
T1 construct: 25 μl human factor Xa (Enzyme Research Laboratories, Inc; South Bend, Ind.); purchased Enzyme Research Laboratories, Inc; South Bend, Ind
Experiment: Factor Xa Assay (chromogenic, purified enzyme)
Type: biochemical
Conditions: inhibition constant for inhibition of factor Xa; chromogenic substrate S-2765 140 μM, enzyme 0.5 nM, 25° C., pH 7.8; Ki=IC50/{1+(substrate concentration/Km)}; read-out: Ki(FXa)
Excerpt: The ability of the compounds of the formula I to inhibit factor Xa or factor VIIa or other enzymes like thrombin, plasmin, or trypsin can be assessed by determining the concentration of the compound of the formula I that inhibits enzyme activity by 50%, i. e. the IC50 value, which was related to the inhibition constant Ki. Purified enzymes were used in chromogenic assays. […] For calculating the inhibition constant Ki, the IC50 value was corrected for competition with substrate using the formula Ki=IC50/{1+(substrate concentration/Km)} wherein Km is the Michaelis-Menten constant (Chen and Prusoff, Biochem. Pharmacol. 22 (1973) 3099-3108; I. H. Segal, Enzyme Kinetics, 1975, John Wiley & Sons, New York, 100-125; which were incorporated herein by reference). a) Factor Xa Assay
The IC50 was determined by combining in appropriate wells of a Costar half-area microtiter plate 25 μl human factor Xa (Enzyme Research Laboratories, Inc.; South Bend, Ind.) in TBS-PEG; 40 μl 10% (v/v) DMSO in TBS-PEG (uninhibited control) or various concentrations of the compound to be tested diluted in 10% (v/v) DMSO in TBS-PEG; and substrate S-2765 (N(α)-benzyloxycarbonyl-D-Arg-Gly-L-Arg-p-nitroanilide; Kabi Pharmacia, Inc.; Franklin, Ohio) in TBS-PEG.
The assay was performed by pre-incubating the compound of formula I plus enzyme for 10 min. Then the assay was initiated by adding substrate to obtain a final volume of 100 μl. The initial velocity of chromogenic substrate hydrolysis was measured by the change in absorbance at 405 nm using a Bio-tek Instruments kinetic plate reader (Ceres UV900HDi) at 25° C. during the linear portion of the time course (usually 1.5 min after addition of substrate). The enzyme concentration was 0.5 nM and substrate concentration was 140 μM.

T1 sequence (P00742 235-488 limits assumed): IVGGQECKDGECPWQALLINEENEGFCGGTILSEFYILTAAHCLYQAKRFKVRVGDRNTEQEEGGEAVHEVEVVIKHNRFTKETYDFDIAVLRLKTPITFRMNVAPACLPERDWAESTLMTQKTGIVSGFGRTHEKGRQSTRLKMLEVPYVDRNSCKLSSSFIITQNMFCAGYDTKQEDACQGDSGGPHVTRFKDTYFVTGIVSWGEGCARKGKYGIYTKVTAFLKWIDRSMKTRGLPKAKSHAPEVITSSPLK
T1 sequence (P00742 41-179 partner limits assumed): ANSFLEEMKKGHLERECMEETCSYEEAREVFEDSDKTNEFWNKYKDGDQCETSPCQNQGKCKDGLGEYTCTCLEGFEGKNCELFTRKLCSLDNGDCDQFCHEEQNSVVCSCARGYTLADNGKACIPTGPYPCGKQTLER

SMILES | Ki
O=C(CCNC(=O)c1ccc(Cl)s1)Nc1ccc(-n2ccncc2=O)cc1 [Example 2, 5-Chloro-thiophene-2-carboxylic acid {2-[4-(2-oxo-2H-pyrazin-1-yl)-phenylcarbaminyl]-ethyl}-amide] | 7 nM
O=C(CCNC(=O)c1ccc(Cl)cc1)Nc1ccc(N2CCOCC2=O)cc1 [Example 3, 4-Chloro-N-{2-[4-(3-oxo-morpholin-4-yl)-phenylcarbaminyl]-ethyl}-benzamide] | 1390 nM
O=C(NCCC(=O)N1CCc2cc(-n3ccncc3=O)ccc21)c1ccc(Cl)s1 [Example 4, 5-Chloro-thiophene-2-carboxylic acid {3-oxo-3-[5-(2-oxo-2H-pyrazin-1-yl)-2,3-dihydro-indol-1-yl]-propyl}-amide] | 40 nM
O=C(NCCC(=O)n1ccc2cc(-n3ccncc3=O)ccc21)c1ccc(Cl)s1 [Example 5, 5-Chloro-thiophene-2-carboxylic acid {3-oxo-3-[5-(2-oxo-2H-pyrazin-1-yl)-indol-1-yl]-propyl}-amide] | 8 nM
O=C(CCNC(=O)c1ccc(Cl)s1)Nc1ccc(-n2ccncc2=O)cc1F [Example 6, 5-Chloro-thiophene-2-carboxylic acid {2-[2-fluoro-4-(2-oxo-2H-pyrazin-1-yl)-phenylcarbaminyl]-ethyl}-amide] | 4 nM
O=C(NC[C@@H](NCC(F)F)C(=O)Nc1ccc(N2CCOCC2=O)c(C(F)(F)F)c1)c1ccc(Cl)s1 [Example 7, 5-Chloro-thiophene-2-carboxylic acid {(R)-2-(2,2-difluoro-ethylamino)-2-[4-(3-oxo-morpholin-4-yl)-3-trifluoromethyl-phenylcarbaminyl]-ethyl}-amide] | 59 nM
O=C(CCNS(=O)(=O)c1ccc(Cl)s1)Nc1ccc(N2CCOCC2=O)cc1 [Example 8, 3-(5-Chloro-thiophene-2-sulfonylamino)-N-[4-(3-oxo-morpholin-4-yl)-phenyl]-propionamide] | 375 nM
O=C(CCNC(=O)c1ccc(Cl)s1)Nc1ccc(N2CCOCS2(=O)=O)cc1 [Example 9, 5-Chloro-thiophene-2-carboxylic acid {2-[4-(3,3-dioxo-[1,3,4]oxathiazinan-4-yl)-phenylcarbaminyl]-ethyl}-amide] | 30 nM
O=C(NCC(F)(F)C(=O)Nc1ccc(-n2ccncc2=O)cc1)c1ccc(Cl)s1 [Example 10, 5-Chloro-thiophene-2-carboxylic acid {2,2-difluoro-2-[4-(2-oxo-2H-pyrazin-1-yl)-phenylcarbaminyl]-ethyl}-amide] | 8 nM
O=C(NCC(F)(F)C(=O)Nc1ccc(N2CCOCC2=O)cc1)c1ccc(Cl)s1 [Example 11, 5-Chloro-thiophene-2-carboxylic acid {2,2-difluoro-2-[4-(3-oxo-morpholin-4-yl)-phenylcarbaminyl]-ethyl}-amide] | 18 nM
N=C(N)c1cccc(C(=O)NCCC(=O)Nc2ccc(-n3ccncc3=O)cc2)c1 [Example 12, 3-Carbamimidoyl-N-{2-[4-(2-oxo-2H-pyrazin-1-yl)-phenylcarbaminyl]-ethyl}-benzamide] | 100 nM
COC(=O)c1cc(NC(=O)CCNC(=O)c2ccc(Cl)s2)ccc1N1CCOCC1=O [Example 13, 5-{3-[(5-Chloro-thiophene-2-carbonyl)-amino]-propionylamino}-2-(3-oxo-morpholin-4-yl)-benzoic acid methyl ester] | 263 nM
O=C(CCNC(=O)c1ccc(Cl)s1)Nc1ccc(N2CCOCC2=O)c(C(=O)O)c1 [Example 14, 5-{3-[(5-Chloro-thiophene-2-carbonyl)-amino]-propionylamino}-2-(3-oxo-morpholin-4-yl)-benzoic acid] | 30000 nM
O=C(CCNC(=O)c1ccc(Cl)s1)Nc1ccc(N2CCOCC2=O)nc1 [Example 15, 5-Chloro-thiophene-2-carboxylic acid {2-[6-(3-oxo-morpholin-4-yl)-pyridin-3-ylcarbamoyl]-ethyl}-amide] | 194 nM
O=C(CCNC(=O)c1ccc(Cl)s1)Nc1ccc(N2CCOCC2=O)c(F)c1 [Example 16, 5-Chloro-thiophene-2-carboxylic acid {2-[3-fluoro-4-(3-oxo-morpholin-4-yl)-phenylcarbaminyl]-ethyl}-amide] | 15 nM

The next lines start with the values.

Ki | SMILES
3 nM | COC(=O)c1cc(N2CCOCC2=O)ccc1NC(=O)CCNC(=O)c1ccc(Cl)s1 [Example 18, 2-{3-[(5-Chloro-thiophene-2-carbonyl)-amino]-propionylamino}-5-(3-oxo-morpholin-4-yl)-benzoic acid methyl ester]
2 nM | COC(=O)c1cc(-n2ccccc2=O)ccc1NC(=O)CCNC(=O)c1ccc(Cl)s1 [Example 19, 2-{3-[(5-Chloro-thiophene-2-carbonyl)-amino]-propionylamino}-5-(2-oxo-2H-pyridin-1-yl)-benzoic acid methyl ester]
11 nM | O=C(CCNC(=O)c1ccc(Cl)s1)Nc1ccc(-n2ccccc2=O)cc1C(=O)O [Example 20, 2-{3-[(5-Chloro-thiophene-2-carbonyl)-amino]-propionylamino}-5-(2-oxo-2H-pyridin-1-yl)-benzoic acid]
260 nM | O=C(CCNC(=O)c1ccc(Cl)s1)Nc1ccc(-n2ccc(=O)cc2)cc1 [Example 21, 5-Chloro-thiophene-2-carboxylic acid {2-[4-(4-oxo-4H-pyridin-1-yl)-phenylcarbaminyl]-ethyl}-amide]
4000 nM | O=C(CCNC(=O)c1ccc(Cl)cc1)Nc1ccc(-n2ccc(=O)cc2)cc1 [Example 22, 4-Chloro-N-{2-[4-(4-oxo-4H-pyridin-1-yl)-phenylcarbaminyl]-ethyl}-benzamide]
212 nM | COC(=O)CN(C(=O)CCNC(=O)c1ccc(Cl)s1)c1ccc(N2CCOCC2=O)cc1 [Example 23, {{3-[(5-Chloro-thiophene-2-carbonyl)-amino]-propionyl}-[4-(3-oxo-morpholin-4-yl)-phenyl]-amino}-acetic acid methyl ester]
228 nM | O=C(O)CN(C(=O)CCNC(=O)c1ccc(Cl)s1)c1ccc(N2CCOCC2=O)cc1 [Example 24, {{3-[(5-Chloro-thiophene-2-carbonyl)-amino]-propionyl}-[4-(3-oxo-morpholin-4-yl)-phenyl]-amino}-acetic acid]
383 nM | O=C(NCCC(=O)N(CC(F)F)c1ccc(N2CCOCC2=O)cc1)c1ccc(Cl)s1 [Example 25, 5-Chloro-thiophene-2-carboxylic acid (2-{(2,2-difluoro-ethyl)-[4-(3-oxo-morpholin-4-yl)-phenyl]-carbamoyl}-ethyl)-amide]
12 nM | O=C(N[C@H](CNC(=O)c1ccc(Cl)s1)C(=O)Nc1ccc(N2CCOCC2=O)c(C(F)(F)F)c1)OCc1ccccc1 [Example 26, {(R)-2-[(5-Chloro-thiophene-2-carbonyl)-amino]-1-[4-(3-oxo-morpholin-4-yl)-3-trifluoromethyl-phenylcarbaminyl]-ethyl}-carbamic acid benzyl ester]
